The subject of test [1] is HepG2. The experiment in a line: Cytotoxicity against Homo sapiens (human) HepG2 cells assessed as cell viability at 12.5 ug/ml after 48 hr by MTT assay relative to control. In kind it is functional. As to conditions: HepG2, 48 h, read-out: Activity; call rule not given here.
Test [2] has as its system MCF7. The experiment in a line: Cytotoxicity against Homo sapiens (human) MCF7 cells assessed as cell viability at 25 ug/ml after 48 hr by MTT assay relative to control. In kind it is functional. As to conditions: MCF7, 48 h, read-out: Activity.
The subject of test [3] is MCF7. The experiment in a line: Cytotoxicity against Homo sapiens (human) MCF7 cells assessed as cell viability at 6.25 ug/ml after 48 hr by MTT assay relative to control. It is filed as functional. The note with it: MCF7, 48 h, read-out: Activity.
Test [4] has as its system MCF7. The experiment in a line: Cytotoxicity against Homo sapiens (human) MCF7 cells after 48 hr by MTT assay. In kind it is functional, cell-based. The note with it: MCF7, 48 h.
Test [5] can be described thus: Cytotoxicity against Homo sapiens (human) HCT cells assessed as cell viability at 25 ug/ml after 48 hr by MTT assay relative to control. The note with it: read-out: Activity. It is filed as functional.
Test [6] concerns HepG2. The experiment in a line: Cytotoxicity against Homo sapiens (human) HepG2 cells assessed as cell viability at 3.125 ug/ml after 48 hr by MTT assay relative to control. In kind it is functional. As to conditions: HepG2, 48 h, read-out: Activity.
A short description of test [7]: Cytotoxicity against Homo sapiens (human) HCT cells assessed as cell viability at 1.56 ug/ml after 48 hr by MTT assay relative to control. The note with it: read-out: Activity. It is filed as functional.
For test [8], the system named is HepG2. The experiment in a line: Cytotoxicity against Homo sapiens (human) HepG2 cells assessed as cell viability at 50 ug/ml after 48 hr by MTT assay relative to control. It is filed as functional. The note with it: HepG2, 48 h, read-out: Activity.
Test [9] relates to MCF7. As to the kind of experiment: Cytotoxicity against Homo sapiens (human) MCF7 cells assessed as cell viability at 12.5 ug/ml after 48 hr by MTT assay relative to control. As to conditions: MCF7, 48 h, read-out: Activity. In kind it is functional.
Test [10] relates to HepG2. The experiment in a line: Cytotoxicity against Homo sapiens (human) HepG2 cells assessed as cell viability at 25 ug/ml after 48 hr by MTT assay relative to control. As to conditions: HepG2, 48 h, read-out: Activity. In kind it is functional.
Test [11] is described as follows: Cytotoxicity against Homo sapiens (human) HCT cells assessed as cell viability at 50 ug/ml after 48 hr by MTT assay relative to control. In kind it is functional. As to conditions: read-out: Activity.
Test [12] relates to MCF7. As to the kind of experiment: Cytotoxicity against Homo sapiens (human) MCF7 cells assessed as cell viability at 50 ug/ml after 48 hr by MTT assay relative to control. It is filed as functional. As to conditions: MCF7, 48 h, read-out: Activity.
Test [13] is described as follows: Cytotoxicity against Homo sapiens (human) HCT cells after 48 hr by MTT assay. It is filed as functional, cell-based.
The nature of test [14]: Cytotoxicity against Homo sapiens (human) HCT cells assessed as cell viability at 6.25 ug/ml after 48 hr by MTT assay relative to control. In kind it is functional. As to conditions: read-out: Activity.
Test [15] is described as follows: Cytotoxicity against Homo sapiens (human) HCT cells assessed as cell viability at 3.125 ug/ml after 48 hr by MTT assay relative to control. As to conditions: read-out: Activity. In kind it is functional.
The subject of test [16] is MCF7. The experiment in a line: Cytotoxicity against Homo sapiens (human) MCF7 cells assessed as cell viability at 1.56 ug/ml after 48 hr by MTT assay relative to control. In kind it is functional. The note with it: MCF7, 48 h, read-out: Activity.
The subject of test [17] is HepG2. As to the kind of experiment: Cytotoxicity against Homo sapiens (human) HepG2 cells after 48 hr by MTT assay. It is filed as functional, cell-based.
The subject of test [18] is HepG2. The experiment in a line: Cytotoxicity against Homo sapiens (human) HepG2 cells assessed as cell viability at 6.25 ug/ml after 48 hr by MTT assay relative to control. As to conditions: HepG2, 48 h, read-out: Activity. It is filed as functional.
Test [19] in a line: Cytotoxicity against Homo sapiens (human) HCT cells assessed as cell viability at 12.5 ug/ml after 48 hr by MTT assay relative to control. In kind it is functional. The note with it: read-out: Activity.
The test system of test [20] is HepG2. The experiment in a line: Cytotoxicity against Homo sapiens (human) HepG2 cells assessed as cell viability at 1.56 ug/ml after 48 hr by MTT assay relative to control. In kind it is functional. The note with it: HepG2, 48 h, read-out: Activity.
The subject of test [21] is MCF7. The experiment in a line: Cytotoxicity against Homo sapiens (human) MCF7 cells assessed as cell viability at 3.125 ug/ml after 48 hr by MTT assay relative to control. The note with it: MCF7, 48 h, read-out: Activity. It is filed as functional.
[22] abbreviates: Homo sapiens, HepG2, 48 h, read-out: IC50.

The structures appear in SMILES notation. ≈ marks a conversion by molar mass, not a printed value.

Turning to `N#CC1=C(N)Oc2c(ccc3cccnc23)C1c1ccc(Cl)cc1` (stereo not given), the viability at 12.5 µg/mL is 63.5% with HepG2 [1], 72.9% in the test on MCF7 [9] and 67.4% in test [19]. The viability at 25 µg/mL in the test on MCF7 [2] came to 49.8%; in [5], 48.2%; in the test on HepG2 [10], 57.2%. The results for the viability at 6.25 µg/mL (in the test with MCF7 [3]; in test [14]; with HepG2 [18]) were 82.5%, 76.8% and 68.2%, respectively. For the same molecule, the IC50 with MCF7 [4] is 24.9 µg/mL (≈ 74.6 µM); in test [13], 24 µg/mL (≈ 71.9 µM); in the test on HepG2 [17] (setting [22]), > 50 µg/mL. The values for the viability at 3.125 µg/mL (in the test with HepG2 [6]; in test [15]; in the test with MCF7 [21]) were 68.5%, 92.6% and 91.6%, respectively. The results for the viability at 1.56 µg/mL (in [7]; with MCF7 [16]; with HepG2 [20]) were 100%, 100% and 79.6%, respectively. The viability at 50 µg/mL with HepG2 [8] is 52.8%; in test [11], 27.4%; with MCF7 [12] it was 26.8%.

Take `N#CC1=C(N)Oc2c(ccc3cccnc23)C1c1ccc(Br)cc1` (stereo not given): the viability at 12.5 µg/mL was 98.3% in the test with HepG2 [1], 70% in the test on MCF7 [9] and 91.2% in test [19]. The viability at 25 µg/mL with MCF7 [2] was 58.9%; in [5], 78.4%; in the test on HepG2 [10], 96.3%. Further, the figures for the viability at 6.25 µg/mL (in the test on MCF7 [3]; in test [14]; with HepG2 [18]) were 75.7%, 97.8% and 100%, respectively. The 50% inhibitory concentration (IC50) was 34.8 µg/mL (≈ 92 µM) with MCF7 [4], 43.7 µg/mL (≈ 116 µM) in [13] and “Not Active” in the test with HepG2 [17] (hepg2). Also, the values for the viability at 3.125 µg/mL (in the test with HepG2 [6]; in test [15]; in the test with MCF7 [21]) were 100%, 100% and 83.9%, respectively. The viability at 1.56 µg/mL in [7] was 100%; in the test with MCF7 [16] it was 94.8%; in the test with HepG2 [20], 100%. Moreover, the viability at 50 µg/mL in the test with HepG2 [8] was 91.8%; in test [11], 42.4%; with MCF7 [12], 39.1%.

With `Cc1ccc2ccc3c(c2n1)OC(N)=C(C#N)C3c1ccc(Cl)cc1` (stereo not given), the viability at 12.5 µg/mL in the test on HepG2 [1] was determined as 35.6%; with MCF7 [9], 71.4%; in test [19], 55.6%. Further, the viability at 25 µg/mL was 58.2% with MCF7 [2], 35.8% in test [5] and 33.7% in the test on HepG2 [10]. Moreover, the viability at 6.25 µg/mL was determined as 78.2% in the test on MCF7 [3], 66.8% in test [14] and 37.6% in the test on HepG2 [18]. Further, the IC50 with MCF7 [4] was 27.9 µg/mL (≈ 80.2 µM); in test [13], 15.8 µg/mL (≈ 45.4 µM); in the test with HepG2 [17] (setting [22]), 1.8 µg/mL (≈ 5.18 µM). In addition, the viability at 3.125 µg/mL with HepG2 [6] is 43%; in test [15], 79%; in the test on MCF7 [21], 87%. Further, the viability at 1.56 µg/mL in test [7] is 94%; in the test with MCF7 [16], 100%; in the test with HepG2 [20], 51.9%. Also, the figures for the viability at 50 µg/mL (in the test on HepG2 [8]; in [11]; in the test on MCF7 [12]) were 23.1%, 27.6% and 28%, respectively.

On to `Cc1ccc2ccc3c(c2n1)OC(N)=C(C#N)C3c1ccc(Br)cc1` (stereo not given), for which the viability at 12.5 µg/mL in the test with HepG2 [1] was 39.6%; in the test with MCF7 [9], 71.8%; in test [19] it was 58.2%. In addition, the viability at 25 µg/mL in the test on MCF7 [2] was 62.3%; in test [5], 48.8%; in the test on HepG2 [10], 29.3%. In addition, the viability at 6.25 µg/mL is 75.2% in the test on MCF7 [3], 66.6% in test [14] and 44.9% in the test on HepG2 [18]. In addition, the IC50 in the test on MCF7 [4] was determined as 38.9 µg/mL (≈ 99.2 µM); in test [13] it was 22.8 µg/mL (≈ 58.1 µM); in the test with HepG2 [17] (setting [22]) it was 5.5 µg/mL (≈ 14 µM). For the same molecule, the results for the viability at 3.125 µg/mL (in the test with HepG2 [6]; in [15]; in the test on MCF7 [21]) were 64%, 88% and 82.3%, respectively. The viability at 1.56 µg/mL in [7] was determined as 100%; with MCF7 [16], 93.9%; with HepG2 [20], 77.5%. Besides, the figures for the viability at 50 µg/mL (with HepG2 [8]; in test [11]; in the test with MCF7 [12]) were 22%, 36.6% and 41.2%, respectively.

`N#CC1=C(/N=C/c2ccccc2)Oc2c(ccc3cccnc23)C1c1ccc(Cl)cc1` (stereo not given): the viability at 12.5 µg/mL stood at 37.9% in the test on HepG2 [1], 37.2% with MCF7 [9] and 14.8% in test [19]. The figures for the viability at 25 µg/mL (with MCF7 [2]; in test [5]; with HepG2 [10]) were 33.3%, 11.6% and 31.4%, respectively. For the same molecule, the viability at 6.25 µg/mL amounted to 40.8% with MCF7 [3], 19.4% in [14] and 42.5% in the test with HepG2 [18]. For the same molecule, the IC50 in the test on MCF7 [4] is 2.8 µg/mL (≈ 6.64 µM); in test [13], 0.6 µg/mL (≈ 1.42 µM); in the test on HepG2 [17] (setting [22]) it was 2.8 µg/mL (≈ 6.64 µM). Besides, the values for the viability at 3.125 µg/mL (with HepG2 [6]; in [15]; with MCF7 [21]) were 48.9%, 30.2% and 48.3%, respectively. For the same molecule, the viability at 1.56 µg/mL in test [7] is 38.5%; in the test with MCF7 [16], 55%; in the test with HepG2 [20] it was 56.1%. Besides, the viability at 50 µg/mL amounted to 18.6% in the test with HepG2 [8], 9.13% in test [11] and 26.5% in the test on MCF7 [12].

Source of the values: ChEMBL document CHEMBL3045319, “Synthesis, antitumor activity, and structureactivity relationship of some 4H-pyrano[3,2-h]quinoline and 7H-pyrimido[4,5:6,5]pyrano[3,2-h]quinoline derivatives” (Med Chem Res, 2013).
